Measured values: patent US10681909B2, “Herbicidal triazoles” (FMC Corporation, priority 2014, dated 2020)

Assays:
Conditions in all cases: scale 0 to 100
foxtail, green = experiment: Test E preemergence; format: in vivo, Setaria viridis
Source text: (§1) Seeds of plant species selected from corn (Zea mays), soybean (Glycine max), lambsquarters (Chenopodium album), poinsettia, wild (wild poinsettia, Euphorbia heterophylla), pigweed, palmer (palmer pigweed, Amaranthus palmeri), waterhemp (common waterhemp, Amaranthus rudis), surinam grass (Brachiaria decumbens), crabgrass, large (large crabgrass, Digitaria sanguinalis), crabgrass, Brazilian (Brazilian crabgrass, Digitaria horizontalis), panicum, fall (fall panicum, Panicum dichotomiflorum), foxtail, giant (giant foxtail, Setaria faberii), foxtail, green (green foxtail, Setaria viridis), goosegrass (Eleusine indica), johnsongrass (Sorghum halepense), ragweed (common ragweed, Ambrosia elatior), barnyardgrass (Echinochloa crus-galli), sandbur (southern sandbur, Cenchrus echinatus), arrowleaf sida (Sida rhombifolia), ryegrass, Italian (Italian ryegrass, Lolium multiflorum), dayflower, VA (Virginia dayflower, Commelina virginica), field bindweed (Convolvulus arvensis), cocklebur (common cocklebur, Xanthium strumarium), morningglory (Ipomoea coccinea), nightshade (eastern black nightshade, Solanum ptycanthum), kochia (Kochia scoparia), nutsedge, yellow (yellow nutsedge, Cyperus esculentus), smartweed (ladysthumb smartweed, Polygonum persicaria), velvetleaf (Abutilon theophrasti), horseweed (Conyza canadensis), and beggarticks (hairy beggarticks, Bidens pilosa), were planted into a silt loam soil and treated preemergence with test chemicals formulated in a non-phytotoxic solvent mixture which included a surfactant.
(§2) At the same time, plants from these crop and weed species and also waterhemp_RES1, (ALS & Triazine resistant common waterhemp, Amaranthus rudis), and waterhemp_RES2, (ALS & HPPD resistant common waterhemp, Amaranthus rudis) were planted in pots containing Sunshine Redi-Earth® planting medium comprising spaghnum peat moss, vermiculite, starter nutrients and dolomitic limestone were treated with postemergence applications of test chemicals formulated in the same manner. Plants ranged in height from 2 to 18 cm for postemergence treatments (1- to 4-leaf stage). Treated plants and controls were maintained in a greenhouse for 14 to 21 d, after which time all species were compared to controls and visually evaluated. Plant response ratings, summarized in Table E, are based on a scale of 0 to 100 where 0 is no effect and 100 is complete control. A dash (-) response means no test result.

dayflower, VA [1] = experiment: Test E postemergence; format: in vivo, Commelina virginica
Source text: as §1, §2

dayflower, VA [2] = experiment: Test E preemergence; format: in vivo, Commelina virginica
Source text: as §1, §2

soybean [3] = experiment: Test E preemergence; format: in vivo, Glycine max
Source text: as §1, §2

corn = experiment: Test E preemergence; format: in vivo, Zea mays
Source text: as §1, §2

velvetleaf = experiment: Test E preemergence; format: in vivo, Abutilon theophrasti
Source text: as §1, §2

arrowleaf sida [4] = experiment: Test E postemergence; format: in vivo, Sida rhombifolia
Source text: as §1, §2

beggarticks = experiment: Test E postemergence; format: in vivo, Bidens pilosa
Source text: as §1, §2

johnsongrass = experiment: Test E preemergence; format: in vivo, Sorghum halepense
Source text: as §1, §2

goosegrass = experiment: Test E preemergence; format: in vivo, Eleusine indica
Source text: as §1, §2

ragweed [5] = experiment: Test E preemergence; format: in vivo, Ambrosia elatior
Source text: as §1, §2

arrowleaf sida [6] = experiment: Test E preemergence; format: in vivo, Sida rhombifolia
Source text: as §1, §2

ryegrass, Italian = experiment: Test E preemergence; format: in vivo, Lolium multiflorum
Source text: as §1, §2

nutsedge, yellow = experiment: Test E preemergence; format: in vivo, Cyperus esculentus
Source text: as §1, §2

soybean [7] = experiment: Test E postemergence; format: in vivo, Glycine max
Source text: as §1, §2

nightshade = experiment: Test E preemergence; format: in vivo, Solanum ptycanthum
Source text: as §1, §2

panicum, fall = experiment: Test E preemergence; format: in vivo, Panicum dichotomiflorum
Source text: as §1, §2

pigweed, palmer = experiment: Test E preemergence; format: in vivo, Amaranthus palmeri
Source text: as §1, §2

lambsquarters = experiment: Test E preemergence; format: in vivo, Chenopodium album
Source text: as §1, §2

ragweed [8] = experiment: Test E postemergence; format: in vivo, Ambrosia elatior
Source text: as §1, §2

crabgrass, large = experiment: Test E preemergence; format: in vivo, Digitaria sanguinalis
Source text: as §1, §2

Measured: Plant response rating

Fc1ccc(-c2nc(OCC(F)(F)F)n(Cc3ccnc(C(F)(F)F)c3)n2)cc1 [Compound 30]
85: arrowleaf sida [6]; 125 g ai/ha | soybean [7]; 125 g ai/ha
60: dayflower, VA [1]; 31 g ai/ha | beggarticks; 62 g ai/ha
20: nightshade; 31 g ai/ha
95: foxtail, green; 31 g ai/ha | arrowleaf sida [4]; 62 g ai/ha | arrowleaf sida [4]; 125 g ai/ha | arrowleaf sida [6]; 250 g ai/ha | soybean [7]; 250 g ai/ha
80: dayflower, VA [1]; 125 g ai/ha | soybean [7]; 62 g ai/ha | nightshade; 62 g ai/ha | ragweed [8]; 250 g ai/ha
10: dayflower, VA [2]; 62 g ai/ha
90: dayflower, VA [1]; 250 g ai/ha | velvetleaf; 250 g ai/ha | nightshade; 125 g ai/ha | pigweed, palmer; 31 g ai/ha | lambsquarters; 31 g ai/ha
98: arrowleaf sida [4]; 250 g ai/ha | johnsongrass; 125 g ai/ha | ragweed [5]; 250 g ai/ha | nightshade; 250 g ai/ha | panicum, fall; 62 g ai/ha | lambsquarters; 62 g ai/ha | crabgrass, large; 31 g ai/ha | crabgrass, large; 62 g ai/ha
0: soybean [3]; 31 g ai/ha | soybean [3]; 62 g ai/ha | soybean [3]; 125 g ai/ha | corn; 31 g ai/ha | corn; 62 g ai/ha | corn; 125 g ai/ha | nutsedge, yellow; 31 g ai/ha | nutsedge, yellow; 62 g ai/ha | nutsedge, yellow; 125 g ai/ha | nutsedge, yellow; 250 g ai/ha
75: velvetleaf; 125 g ai/ha | beggarticks; 250 g ai/ha | ryegrass, Italian; 125 g ai/ha | soybean [7]; 31 g ai/ha | ragweed [8]; 125 g ai/ha
40: arrowleaf sida [6]; 31 g ai/ha | ryegrass, Italian; 62 g ai/ha
50: corn; 250 g ai/ha | velvetleaf; 31 g ai/ha | beggarticks; 31 g ai/ha | ragweed [5]; 62 g ai/ha
25: dayflower, VA [2]; 125 g ai/ha
70: dayflower, VA [1]; 62 g ai/ha | beggarticks; 125 g ai/ha | goosegrass; 31 g ai/ha | ragweed [5]; 125 g ai/ha | ragweed [8]; 62 g ai/ha
5: dayflower, VA [2]; 31 g ai/ha
65: dayflower, VA [2]; 250 g ai/ha | velvetleaf; 62 g ai/ha | johnsongrass; 31 g ai/ha | johnsongrass; 62 g ai/ha | ragweed [5]; 31 g ai/ha | arrowleaf sida [6]; 62 g ai/ha | ragweed [8]; 31 g ai/ha
30: soybean [3]; 250 g ai/ha | ryegrass, Italian; 31 g ai/ha
100: foxtail, green; 62 g ai/ha | foxtail, green; 125 g ai/ha | foxtail, green; 250 g ai/ha | arrowleaf sida [4]; 31 g ai/ha | johnsongrass; 250 g ai/ha | goosegrass; 62 g ai/ha | goosegrass; 125 g ai/ha | goosegrass; 250 g ai/ha | ryegrass, Italian; 250 g ai/ha | panicum, fall; 31 g ai/ha | panicum, fall; 125 g ai/ha | panicum, fall; 250 g ai/ha | pigweed, palmer; 62 g ai/ha | pigweed, palmer; 125 g ai/ha | pigweed, palmer; 250 g ai/ha | lambsquarters; 125 g ai/ha | lambsquarters; 250 g ai/ha | crabgrass, large; 125 g ai/ha | crabgrass, large; 250 g ai/ha
